# Results as given in patent US20020061888A1, “Combination therapy for the prophylaxis and treatment of hyperlipidemic conditions and disorders” (priority 2000, published 2002).
# What was measured:
# Type in all cases: in vivo
# Male beagle dogs [1] = experiment: Fecal bile acid concentration in beagle dogs (enzymatic 3α-hydroxysteroid dehydrogenase assay of fecal extracts); conditions: pravastatin monotherapy 10 mg/kg/day; for FECAL BILE ACID CONCENTRATION: n = 6
# Method: Male beagle dogs (9-10 kg) obtained from Marshall farms were fed a normal chow diet once a day for a two hour interval and given water ad libitum. Prior to initiating treatment, the dogs were weighed and blood samples were drawn from the cephalic vein of each dog following an overnight fast to evaluate pretreatment serum total cholesterol levels at the start of the study. […] All doses were administered in gelatin capsules per os to each dog between 9:00-9:30 a.m. prior to feeding. All animals were fed between 9:30-10:00 a.m. and were allowed two hours to eat, at which time any remaining food was removed. […] Three consecutive 24 hour fecal samples were collected for each group during the last 72 hours of each week and used to measure the concentration of fecal biles acids excreted during that time period.
# Fecal samples were collected to determine the fecal bile acid (“FBA”) concentration for each animal. Three consecutive 24 hour fecal samples were collected between 8:00 a.m. and 9:00 a.m. each day, prior to dosing and feeding, during the last 72 hour period of each week. The separate daily collections from each dog were weighed, combined and homogenized with distilled water in a food processor to generate a homogeneous slurry. A 1.4 g sample of fecal homogenate was extracted with 2.6 mL of a solution containing tertiary butanol:distilled water in the ratio of 2:0.6 (final concentration of 50% tertiary butanol v/v distilled water) for 45 minutes in a 37° C. water bath and centrifuged for 13 minutes at 2000 x g. The concentration of bile acids (μmoles/gram homogenate) was determined using a 96-well enzymatic assay system described in van der Meer et al., “t-Butanol Extraction of Feces: A Rapid Procedure For Enzymic Determination Of Fecal Bile Acids”, Cholesterol, Metabolism in Health and Disease: Studies in the Netherlands, edited by Beynen, et al., Ponsen and Looyen, Wageningen, 1985; and Turley et al., “Re-evaluation of the 3 Alpha-Hydroxysteroid Dehydrogenase Assay For Total Bile Acids In Bile”, J. Lipid Research, 19:924-928, 1978.
# A 20 μL aliquot of each fecal extract was added to each of two sets of triplicate wells in a 96-well assay plate. A standardized sodium taurocholate solution and a standardized fecal extract solution (previously made from pooled samples and characterized for its bile acid concentration) were also analyzed for assay quality control. A standard curve of five points containing 30-540 nmoles/well was generated by serial dilutions of an initial 20 μL aliquot of 90 mM sodium taurocholate. A 230 μL aliquot of a reaction mixture containing 1M hydrazine hydrate, 0.1 M pyrophosphate and 0.46 mg/ml NAD was added to each well. Subsequently, a 50 μL aliquot of either 3α-hydroxysteroid dehydrogenase (“HSD”) enzyme (0.8 units/mL) or assay buffer (0.1 M sodium pyrophosphate) was then added to one each of the two sets of triplicates. Following 60 minutes of incubation at room temperature, the optical density at 340 nm was measured and the mean of each set of triplicate samples was calculated. The difference in optical density with and without HSD enzyme was used to determine the bile acid concentration (mM) of each sample based on the sodium taurocholate standard curve. The bile acid concentration of the extract (μmoles/gram homogenate), the total weight of the fecal homogenate (grams) and the body weight of the dogs (kg) were used to calculate the corresponding fecal bile acid concentration in μtmoles/kg/day for each animal.
# All reagents used for the assay were obtained from Sigma Chemical Co., St. Louis, Mo. (HSD enzyme—catalog # H-1506; NAD—catalog # N1636; sodium taurocholate—catalog # T-4009).
# Male beagle dogs [2] = experiment: Serum triglyceride in beagle dogs; conditions: n = 6
# Method: Following this initial four week dose-ranging study, dogs from the two groups receiving 10 mg/kg/day pravastatin (a.m. and p.m. dosing groups) were randomized into two new treatment groups based on serum total cholesterol levels to initiate the combination treatment study. […] Dosing continued in this manner for an additional four weeks (Weeks 5-8) with blood and 48-hour fecal samples collected at the end of each week for serum lipid measurements and fecal bile acid determinations, respectively. […] At the end of this three-week period, pravastatin dosing and all empty capsule dosing were discontinued and blood samples were collected weekly for a final three weeks (weeks 12-14) to monitor the return of serum total cholesterol levels back to baseline.
# Blood was collected from the cephalic vein of each dog into serum separator tubes. The blood was centrifuged at 900×g for 20 minutes at room temperature and the serum decanted. All analyses were performed on a Cobas Mira Clinical Analyzer System (Roche Diagnostic Systems, Branchburg, N.J.) using Roche Diagnostic reagents for enzymatic determinations of serum cholesterol and triglycerides. Commercial calibrator and quality control materials were analyzed with each run to verify assay accuracy and precision. A two-tailed, paired Students t-test was used to determine the statistical significance of changes in total serum cholesterol in treated animals compared to their pretreatment values. A two-sample, two-tailed unequal variance Students t-test was used to determine serum total cholesterol and triglyceride changes in the combination therapy group compared to the monotherapy groups. […]
# Male beagle dogs [3] = experiment: Serum total cholesterol in beagle dogs (serum lipid measurements); conditions: pravastatin 16.0 mg/kg/day, Week 3, mean ± SEM, n = 6
compound,measurement,setting,value
"CC[C@H](C)C(=O)O[C@H]1C[C@H](O)C=C2C=C[C@H](C)[C@H](CC[C@@H](O)C[C@@H](O)CC(=O)O)[C@H]21 [pravastatin, Pravastatin]",% change in fecal bile acid concentration from Week 0,Male beagle dogs [1]; Week 5,(−54) %
same,FECAL BILE ACID CONCENTRATION,"Male beagle dogs [1]; Week 5, mean ± SEM",17 ± 5 µmol/kg/day
same,% change in fecal bile acid concentration from Week 0,Male beagle dogs [1]; Week 6,(−38) %
same,FECAL BILE ACID CONCENTRATION,"Male beagle dogs [1]; Week 6, mean ± SEM",23 ± 7 µmol/kg/day
same,% change in fecal bile acid concentration from Week 0,Male beagle dogs [1]; Week 7,(−19) %
same,FECAL BILE ACID CONCENTRATION,"Male beagle dogs [1]; Week 7, mean ± SEM",30 ± 6 µmol/kg/day
same,% change in fecal bile acid concentration from Week 0,Male beagle dogs [1]; Week 8,(−30) %
same,FECAL BILE ACID CONCENTRATION,"Male beagle dogs [1]; Week 8, mean ± SEM",26 ± 9 µmol/kg/day
same,% change in fecal bile acid concentration from Week 0,Male beagle dogs [1]; Week 9,(−24) %
same,FECAL BILE ACID CONCENTRATION,"Male beagle dogs [1]; Week 9, mean ± SEM",28 ± 5 µmol/kg/day
same,% change in fecal bile acid concentration from Week 0,Male beagle dogs [1]; Week 10,(−24) %
same,FECAL BILE ACID CONCENTRATION,"Male beagle dogs [1]; Week 10, mean ± SEM",28 ± 6 µmol/kg/day
same,TOTAL SERUM TRIGLYCERIDE,"Male beagle dogs [2]; pravastatin monotherapy 10 mg/kg/day, dosed Weeks 1-11, Week 4, mean ± SEM",30 ± 4 mg/dL
same,TOTAL SERUM TRIGLYCERIDE,"Male beagle dogs [2]; pravastatin monotherapy 10 mg/kg/day, dosed Weeks 1-11, Week 5, mean ± SEM",34 ± 3 mg/dL
same,TOTAL SERUM TRIGLYCERIDE,"Male beagle dogs [2]; pravastatin monotherapy 10 mg/kg/day, dosed Weeks 1-11, Week 6, mean ± SEM",35 ± 4 mg/dL
same,TOTAL SERUM TRIGLYCERIDE,"Male beagle dogs [2]; pravastatin monotherapy 10 mg/kg/day, dosed Weeks 1-11, Week 7, mean ± SEM",37 ± 3 mg/dL
same,TOTAL SERUM TRIGLYCERIDE,"Male beagle dogs [2]; pravastatin monotherapy 10 mg/kg/day, dosed Weeks 1-11, Week 8, mean ± SEM",38 ± 5 mg/dL
same,TOTAL SERUM TRIGLYCERIDE,"Male beagle dogs [2]; pravastatin monotherapy 10 mg/kg/day, dosed Weeks 1-11, Week 9, mean ± SEM",34 ± 2 mg/dL
same,TOTAL SERUM TRIGLYCERIDE,"Male beagle dogs [2]; pravastatin monotherapy 10 mg/kg/day, dosed Weeks 1-11, Week 11, mean ± SEM",33 ± 3 mg/dL
same,TOTAL SERUM TRIGLYCERIDE,"Male beagle dogs [2]; pravastatin monotherapy group, dosing terminated after Week 11, Week 12, mean ± SEM",46 ± 4 mg/dL
same,TOTAL SERUM TRIGLYCERIDE,"Male beagle dogs [2]; pravastatin monotherapy group, dosing terminated after Week 11, Week 13, mean ± SEM",44 ± 3 mg/dL
same,TOTAL SERUM TRIGLYCERIDE,"Male beagle dogs [2]; pravastatin monotherapy group, dosing terminated after Week 11, Week 14, mean ± SEM",40 ± 4 mg/dL
same,SERUM TOTAL CHOLESTEROL,Male beagle dogs [3],134 ± 13^2 mg/dL
